Experimental data as given in US20050260711A1, “Modulating pH-sensitive binding using non-natural amino acids” (priority 2004, published 2005).

Legend:
[1] = system: E. coli; test: growth and Nal incorporation of E. coli expression host with added AZL; assay type: cell-based; conditions: AZL added to the medium
Method: Incomplete occupancy of the UUG codon by Nal is due at least in part to competition with leucine-charged E. coli tRNA^LeuS. In an attempt to reduce competition by E. coli tRNA^LeuS, use of a mutant E. coli strain lacking tRNA^LeuCAA and addition of an E. coli leucyl-tRNA synthetase (LeuRS) inhibitor were tested. A Phe/Leu double auxotrophic strain derived from the tRNA^LeuCAA-deficient strain XA106 (CGSC at Yale) was tested for incorporation of Nal at the UUG codon.
Peptide 5UUG/UUG (residues 26-35, […], SEQ ID NO: 8) contains two Leu residues encoded as UUG. Upon addition of Nal, the masses of these fragments shift in accord with the mass difference between Nal and Leu. Only Nal (a), Nal and 1 mM AZL (b) were supplemented into the media.

[2] = target: E. coli LeuRS (Escherichia coli, UniProt P07813); conditions: in vitro; cited from earlier work
[3] = cited from earlier work; for pKa (second of two pKa's): higher of the two pKa's of the side-chain moiety; for pKa (first of two pKa's): lower of the two pKa's of the side-chain moiety
[4] = target: mu-yPheRS (modified yeast PheRS, Thr415Gly) (Saccharomyces cerevisiae, UniProt P15625, T415G); conditions: Nal versus Phe
Method: The modified yeast PheRS (mu-yPheRS) was prepared by introduction of a Thr415Gly mutation in the α-subunit of the synthetase (Datta et al., J. Am. Chem. Soc. 124: 5652, 2002). The kinetics of activation of Nal and Phe by mu-yPheRS were analyzed in vitro via the pyrophosphate exchange assay.

[5] = target: leucine zipper c-MYC-MAX heterodimer (Homo sapiens, UniProt P01106+P61244); conditions: histidine at the center of c-MYC-MAX leucine zipper; cited from earlier work
leucine zipper c-MYC-MAX heterodimer, sequence (P01106 428-449 limits assumed): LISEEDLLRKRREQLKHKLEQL
leucine zipper c-MYC-MAX heterodimer, sequence (P61244 81-102 limits assumed): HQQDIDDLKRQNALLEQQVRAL

E. coli LeuRS, sequence (P07813 whole entry): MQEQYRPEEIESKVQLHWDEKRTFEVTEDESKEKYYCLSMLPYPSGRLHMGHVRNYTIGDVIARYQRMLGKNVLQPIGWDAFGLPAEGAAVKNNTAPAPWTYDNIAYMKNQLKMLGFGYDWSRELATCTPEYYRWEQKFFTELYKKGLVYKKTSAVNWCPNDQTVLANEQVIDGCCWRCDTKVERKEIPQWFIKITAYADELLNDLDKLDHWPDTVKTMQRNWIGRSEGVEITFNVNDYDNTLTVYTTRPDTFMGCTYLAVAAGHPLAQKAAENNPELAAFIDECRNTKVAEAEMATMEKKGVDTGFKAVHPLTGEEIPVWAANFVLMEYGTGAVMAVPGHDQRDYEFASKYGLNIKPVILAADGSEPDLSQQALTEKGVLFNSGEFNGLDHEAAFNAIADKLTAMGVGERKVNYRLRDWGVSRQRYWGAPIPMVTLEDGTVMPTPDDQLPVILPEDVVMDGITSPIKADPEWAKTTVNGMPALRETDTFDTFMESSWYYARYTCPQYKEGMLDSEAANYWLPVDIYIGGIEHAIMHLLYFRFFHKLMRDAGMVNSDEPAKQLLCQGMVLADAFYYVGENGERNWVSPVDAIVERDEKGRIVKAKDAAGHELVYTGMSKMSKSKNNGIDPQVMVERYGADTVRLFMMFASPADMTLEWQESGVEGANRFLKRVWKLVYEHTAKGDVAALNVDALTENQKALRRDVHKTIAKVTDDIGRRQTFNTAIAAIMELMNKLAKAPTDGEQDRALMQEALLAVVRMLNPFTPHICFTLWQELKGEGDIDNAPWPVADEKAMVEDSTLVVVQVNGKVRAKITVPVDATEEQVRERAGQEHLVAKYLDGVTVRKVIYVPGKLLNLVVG
mu-yPheRS (modified yeast PheRS, Thr415Gly), sequence (P15625 whole entry T415G): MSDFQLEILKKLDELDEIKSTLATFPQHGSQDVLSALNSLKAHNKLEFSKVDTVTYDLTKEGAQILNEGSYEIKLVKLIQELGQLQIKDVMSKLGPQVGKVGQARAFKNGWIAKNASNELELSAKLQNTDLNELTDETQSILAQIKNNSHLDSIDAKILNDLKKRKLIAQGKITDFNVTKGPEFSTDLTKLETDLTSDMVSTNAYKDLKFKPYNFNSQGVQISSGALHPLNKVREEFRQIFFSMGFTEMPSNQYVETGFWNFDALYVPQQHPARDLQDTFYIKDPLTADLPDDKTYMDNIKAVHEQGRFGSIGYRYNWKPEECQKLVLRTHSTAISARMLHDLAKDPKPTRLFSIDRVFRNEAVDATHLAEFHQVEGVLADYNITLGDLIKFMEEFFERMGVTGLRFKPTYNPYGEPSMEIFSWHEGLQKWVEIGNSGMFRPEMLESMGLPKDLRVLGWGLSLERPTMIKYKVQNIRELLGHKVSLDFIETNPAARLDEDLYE
mu-yPheRS (modified yeast PheRS, Thr415Gly), sequence (P15624 whole entry, further chain): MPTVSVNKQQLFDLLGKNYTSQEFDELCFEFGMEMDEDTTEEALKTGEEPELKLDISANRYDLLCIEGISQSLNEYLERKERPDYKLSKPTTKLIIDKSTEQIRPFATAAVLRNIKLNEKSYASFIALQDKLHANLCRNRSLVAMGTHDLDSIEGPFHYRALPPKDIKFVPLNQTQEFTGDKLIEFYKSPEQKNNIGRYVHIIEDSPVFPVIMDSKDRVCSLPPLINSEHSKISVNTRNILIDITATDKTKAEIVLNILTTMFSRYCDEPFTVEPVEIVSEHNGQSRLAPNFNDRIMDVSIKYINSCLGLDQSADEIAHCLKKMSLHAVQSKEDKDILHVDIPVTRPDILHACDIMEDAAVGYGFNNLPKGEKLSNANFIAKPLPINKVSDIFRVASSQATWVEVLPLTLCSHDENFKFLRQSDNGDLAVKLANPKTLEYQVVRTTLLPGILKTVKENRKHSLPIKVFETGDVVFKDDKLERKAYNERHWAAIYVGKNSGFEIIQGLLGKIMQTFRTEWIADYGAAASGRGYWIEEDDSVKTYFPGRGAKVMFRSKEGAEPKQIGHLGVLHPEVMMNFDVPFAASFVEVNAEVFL

In the case of `CN(C)CC(N)C(=O)O` (racemic) [AZL, 4-Aza-DL-leucine], the “growth rate of the host” value [1] is given as “reduced the growth rate”, the “occupancy of the UUG codon by Nal” value ([1]; mDHFR expression) is given as “enhanced occupancy” and the “inhibition of E. coli LeuRS” value [2] is given as “competitive inhibitor”.

For `N[C@@H](Cc1c[nH]c(F)n1)C(=O)O` [2-fluoro-histidine], the “pKa (second of two pKa's)” value [3] is given as 11.5 and the “pKa (first of two pKa's)” value [3] is given as 4.0.

With `N[C@@H](Cc1ccc2ccccc2c1)C(=O)O` [Nal, L-3-(2-naphthyl)alanine] the “kcat/KM relative to that for Phe” value [4] was 8 fold.

For `N[C@@H](Cc1c[nH]cn1)C(=O)O` [histidine], the “histidine pKa, experimental value” [5] is given as 7.19, the “pKa (second of two pKa's)” value [3] is given as 14.52 and the “pKa (first of two pKa's)” value [3] is given as 7.05.
